# Measured values from PMC9540525 (Cancer, 2022).
# Key:
# [1] = system: progastrin‐releasing peptide [pro‐GRP]; assay: Phase 1 study: serum progastrin-releasing peptide; assay type: in vivo, human; details: dose expansion, NENs
# [2] = system: patient‐derived xenograft models; details: cited from earlier work
smiles,measurement,setting,value
COc1ccc(-c2c(-c3ccc(C#N)c(F)c3)nc(N3CCC(N)CC3)n(C)c2=O)cc1F [CC‐90011],patients in whom pro-GRP levels decreased,[1],15 of 16
same,patients with a pro-GRP decrease >30%,[1],11 of 16
same,antiproliferative activity in patient-derived xenograft models,[2],demonstrated antiproliferative activity
